Measured values as given in a melting point compilation (Tetko et al.; mined from patent text by program, amines drawn as free bases though some values may be those of a salt).

Row | SMILES | melting point
1 | CON1C(C)(C)CC(OC(=O)c2ccc(C(=O)OC3CC(C)(C)N(OC)C(C)(C)C3)cc2)CC1(C)C | 179 to 181 °C
2 | CCOC(=O)NN=COC(N)CC (stereo not drawn) | 100 °C
3 | O=C(O)CCCC(=O)c1cc(-c2ccccc2)nc2ccccc12 | 136 °C
4 | CNc1nc(Br)cc(Sc2ccccc2)n1 | 122 to 124 °C
5 | O=C(NCC1CCCO1)c1c[nH]c2ccccc2c1=O (stereo not drawn) | 205 to 209 °C
6 | CC1(C)N=C(Oc2ccnc(O)c2)c2cc(C#N)ccc2O1 | 275 to 278 °C
7 | COc1cccc(-c2ccc3cc(OC)ccc3c2Oc2ccc(O)cc2)c1 | 125 to 126 °C
8 | O=C1COc2cc(F)c(NC(=O)c3ccccc3[N+](=O)[O-])cc2N1 | > 248 °C
9 | COP(=S)(OC)Oc1ncn(-c2ccccn2)n1 | 88 to 91 °C
10 | CC(=O)c1ccc(C2COc3c(C)c(C)c(NC(=O)CC(C)(C)C)c(C)c32)cc1 (stereo not drawn) | 181 to 182 °C
11 | CCCCCCCCCCCCSC1C(=O)N(c2c(Cl)cc(Cl)cc2Cl)N=C1Nc1cc(OC)c(Cl)cc1Cl (stereo not drawn) | 100 to 102 °C
12 | CCCCCS(=O)(=O)NC(=O)/C=C/c1ccc(OC(C)C)cc1Oc1ncc(C(F)(F)F)cc1Cl | 142 to 144 °C
13 | CC#CCOc1ccc(S(=O)(=O)N(C)CCC(=O)O)cc1 | 90 to 110 °C
14 | COC(=O)Cc1c(C)n(-c2ncnc3cc(Cl)ccc23)c2ccc(OC)cc12 | 112 to 114 °C
15 | COc1c(Br)cccc1[N+](=O)[O-] | 55 to 56 °C
16 | Fc1ccccc1C1=NCc2c[nH]cc2-c2ccc(Cl)cc21 | 197 to 199 °C
17 | COc1ccc2c(c1)CCC1C3CC4OCCOC4C3(C)CCC21C (stereo not drawn) | 115 °C
18 | Cc1nc(/C=C/c2ccc3ccccc3n2)cc(-n2nc(C)nc2C)n1 | 153 to 155 °C
19 | c1ccc(CN(c2ccccc2)c2cccc3ccccc23)cc1 | 120 to 123 °C
20 | COC(=O)c1ccc(CN(C2CCCCC2C)S(=O)(=O)c2ccc(Cl)cc2)cc1 (stereo not drawn) | 93 to 95 °C
21 | CC(=O)Nc1cc(-c2ccc(S(C)(=O)=O)cc2)c(-c2ccc(F)cc2)s1 | 80 to 92 °C
22 | O[C@@H]1CN(CC2CC2)CC[C@@H]1c1ccccc1 (relative stereo) | 94 to 97 °C
23 | CC(C)(C)OC(=O)/C=C1/CCCCC1n1nc(-c2c(-c3ccccc3)nn3ccccc23)ccc1=O (stereo not drawn) | 110 to 116 °C
24 | CCOC(=O)c1cccc2c1N=C(c1ccccc1)CC2=O | 218 to 219 °C

Row | SMILES | melting point
25 | O=c1[nH]c2cc(F)ccc2c(=O)n1S(=O)(=O)c1ccc(Cl)cc1 | > 200 °C
26 | CC1COCC(C)N1c1ccc(-c2nc(C(=O)Nc3nccs3)c(-c3ccc(Cl)cc3)[nH]2)cc1 (stereo not drawn) | > 250 °C
27 | O=C1COc2ccc(C3=Nn4cnnc4SC3c3ccccc3Cl)cc2N1 (stereo not drawn) | 234 to 235 °C
28 | Nc1nonc1C(=O)NCCCCCC(=O)NO | 150 to 152 °C
29 | O=C(N[C@H](Cc1ccccc1)C(=O)O)OCc1ccc2oc(-c3ccccc3)cc2c1 | 173 to 174 °C
30 | Clc1ccc(-c2cc(Cl)n3nccc3n2)cc1 | 133 to 135 °C
31 | COc1ccc(Nc2nc(Nc3ccc(OC)c(Cl)c3)nc(NC3CCCCCC3)n2)cc1Cl | 183 °C
32 | CC(C)(C)OC(=O)c1ccc([N+](=O)[O-])c(CBr)c1 | 61 to 65 °C
33 | C=CC(=O)Oc1c(Cc2cc(C)cc(C(C)(C)C)c2O)cc(C)cc1C(C)(C)C | 132 to 134 °C
34 | O=C(Nc1cc(Cl)ccc1Oc1ccc(Cl)cc1)c1ccncc1 | 214 to 215 °C
35 | COc1cc2c(cc1Nc1ncc(Cl)c(Nc3ccccc3S(=O)(=O)N(C)C)n1)CCN(CC(C)(C)O)CC2 | 188 to 189 °C
36 | CCc1nc(/C=C/c2cccc(Cl)c2Cl)no1 | 107 to 109 °C
37 | O=C(O)CCCCCSC1c2ccccc2COc2ccc(OCc3ccc4ccc(Cl)cc4n3)cc21 (stereo not drawn) | 160 to 166 °C
38 | CC(=O)c1cccc(Oc2ncccc2NC(=O)Cc2ccc(C(C)(C)O)cc2)c1 | 85 to 87 °C
39 | CNS(=O)(=O)c1cc2c(c(C(=O)NCC3CCN(C)C3)c1)OCCO2 (stereo not drawn) | 187 to 188 °C
40 | CCOC(=O)[C@H](Cc1ccc(-c2c(OC)cc(CO)cc2OC)cc1)NC(=O)OC(C)(C)C | 142 to 143 °C
41 | CCc1cc(=O)c2nc(OCC[Si](C)(C)C)ccc2[nH]1 | 193 °C
42 | O=C1NC(=O)N(Cc2ccccc2)C(=O)C1Cc1ccccc1 (stereo not drawn) | 107 to 109 °C
43 | CC1(C)CCc2c(N3CCCC3)nc3sc4c(NCc5ccccn5)ncnc4c3c2C1 | 212 to 213 °C
44 | CS(=O)(=O)c1ccc(-n2nc(C(F)(F)F)cc2-c2ccc(-c3ccsc3)cc2)cc1F | 72 to 74 °C
45 | Cc1cscc1-c1cccc2c1ccn2-c1ccnc(NC2CCC(C(=O)N3CCC(O)CC3)CC2)n1 (stereo not drawn) | 168 to 188 °C
46 | COC(=O)c1cccc2c1c1c(OC)c3c(cc1n2Cc1ccccc1)CCCC3 | 144 to 146 °C
47 | COC(=O)C(C)(C)c1ccc(C(=O)Nc2cn3c4c(ccc3n2)OCC4)cc1 | 235 to 237 °C
48 | Cn1nc(-c2ccccc2)cc1-c1ccccc1 | 52 to 53 °C

The remaining lines, values ahead:

Row | melting point | SMILES
49 | > 300 °C | O=S(=O)(O)c1cccc2c1ccc1nc(O)c(O)nc12
50 | 227 to 228 °C | CN1CCN(C2=Nc3ccccc3N=C(N3CCN(C)CC3)C2)CC1
51 | 145 °C | CCN1C(=O)N(c2cc(Cl)cc(Cl)c2)C(=O)[C@]12CN(S(=O)(=O)c1cccc(C(=O)O)c1)C[C@H]2c1ccc(C#N)cc1 (relative stereo)
52 | 252 to 254 °C | O=c1c(Cc2ccccc2)c(O)c2cccc3c2n1C(c1ccccc1)C3 (stereo not drawn)
53 | 160 to 162 °C | CNc1ccc(C#Cc2cncc(-c3nc(NC)nc4cc(OC)c(OC)cc34)c2)cn1
54 | 60 to 65 °C | COc1ccccc1N1CCN(CCC(C(=O)NCCN2CCOCC2)c2ccccc2)CC1 (stereo not drawn)
55 | 115 to 118 °C | CC(C)CCOC(=O)c1cccc(-c2cn(C)cc(-n3cccn3)c2=O)c1
56 | 166 to 167 °C | CC(C)c1cccc(C(C)C)c1NS(=O)(=O)CC(=O)NC(c1ccccc1)c1ccccc1
57 | 133 to 134 °C | COc1ccc(CNc2cc(Cn3c(C(=O)c4cc(C)cc(C#N)c4)c(C(C)C)c(=O)[nH]c3=O)c(F)c(F)n2)cc1
58 | 128 to 129 °C | CCOP(=O)(Cc1ccc(NC(=O)CCCc2cnoc2-c2ccccc2)cc1)OCC
59 | > 300 °C | Cc1oc2cc(O)ccc2c(=O)c1C#N
60 | 152 °C | Nc1cc2c(cc1[N+](=O)[O-])OCC2
61 | 82 to 83 °C | NS(=O)(=O)Oc1cccc(Cl)c1
62 | 127 to 129 °C | O[C@@H](COc1cccc(-c2noc3ccsc23)c1)CN1CCN(c2ccccc2)CC1
63 | 66.5 to 68.5 °C | Cc1cn(C(C(=O)N(C)C)C(C)C)nc1-c1ccccc1 (stereo not drawn)
64 | > 250 °C | Oc1nc2ccccc2c(O)c1O
65 | 113 to 115 °C | CC(C)(O)c1cc(-c2ccc(Cl)cc2)nc2ccnn12
66 | 199 to 202 °C | COc1nc(N)nc2c1ncn2[C@@H]1O[C@H](CO)[C@@H](O)[C@@]1(C)F
67 | 153 to 159 °C | CCCCCCCCON1C(C)(C)CC(NC(=O)CCc2cc(-n3nc4ccccc4n3)c(O)c(C(C)(C)C)c2)CC1(C)C
68 | 136 to 137 °C | CC1(C(=O)c2ccc(C(=O)O)cc2)CC1
69 | 156 to 157 °C | C=C(CC(=O)c1ccc(Cl)c(Cl)c1)C(=O)O
70 | 114 to 115 °C | O=C(CCCCCNC(=O)c1ccco1)NO
71 | 234 to 236 °C | N#CCc1ccnc2c(NC(=O)c3c(Cl)cccc3Cl)cccc12
72 | 109 to 110 °C | Cc1oc(-c2ccco2)nc1COc1ccc(COc2ncccc2C=O)cc1
73 | 242 to 244 °C | CNC(=O)C(C)C(O)(Cn1cncn1)c1ccc(Cl)cc1Cl (stereo not drawn)

Row | melting point | SMILES
74 | 123 to 125 °C | NC(Cc1cccc2cccc(Br)c12)=NO
75 | 48 to 50 °C | C=CCc1cc(CC(=O)NCCCC)ccc1O
76 | 116 to 118 °C | Cc1cc(Oc2ncc(C(F)(F)F)cc2Cl)nn1C(=O)Nc1ccccc1
77 | 68 to 69 °C | CCCCCCCCCCCCCCCCCCOc1cc(NC(=O)OCc2ccccc2)cc(OCCCOc2ccccc2)c1
78 | 151 to 153 °C | Cc1ccc(NC(=O)c2cc(Cl)ccc2NCC2CCN(C3CCSC3)CC2)nc1 (stereo not drawn)
79 | 178 to 179 °C | Cc1ccccc1NC(=O)Nc1ccc(CC(=O)N[C@@H](CC(C)C)C(=O)O)cc1
80 | 115 to 120 °C | CC(c1ccccc1)N1CC(CCl)C(c2ccccc2)(c2ccccc2)C1=O (stereo not drawn)
81 | 85 to 86 °C | CC(=O)Nc1ncc2ncn(COC(COC(C)C)COC(C)C)c2n1
82 | 80 to 82 °C | COc1cc(Br)cc2nc(SCc3ccccc3)nn12
83 | 73 to 74 °C | CC#CCC(C)(C)C(=O)/C=C/[C@@H]1[C@H]2CC(=O)O[C@H]2C[C@H]1OC(=O)c1ccccc1
84 | 139 to 141 °C | O=C(O)c1ncc(Cl)nc1Cl
85 | 288 °C | N#Cc1ccc(C=Cc2ccc(C#N)cc2)cc1
86 | 59 to 63.5 °C | CC(C)C[C@@H](C#N)NC(=O)[C@@H]1CCCC[C@@H]1NC(=O)c1cc2ccccc2n1CCO
87 | 128 to 132 °C | Clc1ccc(NC2CCC3(CCNCC3)CC2)cc1Cl
88 | 220 to 221 °C | COc1ccc(C)cc1NC(=O)Nc1ccc(N2CCN(c3ncccn3)CC2)cc1
89 | 200 to 202 °C | COc1cc(NC(=O)OC(C)(C)C)cc2c1nc(C(F)F)n2-c1nc(N2CCOCC2)nc(N2CCN(S(=O)(=O)CCN(C)C)CC2)n1
90 | 114 to 115 °C | CCOC(=O)c1cnn(-c2ccc(OCC(CC)CC)c(C#N)c2)c1
91 | 97 °C | Oc1ccc(Oc2ncc(C(F)(F)F)cc2F)cc1
92 | 197 to 199 °C | O=C1N(Cc2ccccn2)c2ccccc2C12COc1c(Cl)cc3c(c12)OCCO3 (stereo not drawn)
93 | 196 to 201 °C | Cc1c(NC(=O)c2ccnc(NCc3ccc(=O)[nH]c3)c2)cccc1C(F)(F)F
94 | 220 to 221 °C | O=S(=O)(NC1CC1)c1ccc(Nc2nc(OCC3CCCCC3)c3nc[nH]c3n2)cc1
95 | 188 to 190 °C | O=Cc1cc2cc(Cl)ccc2nc1Cl
96 | 96 °C | COC(=O)c1nc(S(C)(=O)=O)ncc1Cl
97 | 135 to 136 °C | CCOC(=O)c1cc2c(nc1COc1ccc(C(=O)O)cc1)CCCCC2
98 | 180 to 182 °C | CCCCCSc1cc(C(=O)O)cc(S(N)(=O)=O)c1Oc1ccccc1
